The source of these data is patent US10526337B2, “Heteroaryl derivative or pharmaceutically acceptable salt thereof, preparation method therefor, and pharmaceutical composition for preventing or treating diseases associated with PI3 kinases, containing same as active ingredient” (KOREA RESEARCH INSTITUTE OF CHEMICAL TECHNOLOGY, priority 2015, dated 2020).

pIC50: −log10 of the molar value. Some results are limits rather than exact numbers.

What all share (details): ATP=10 uM, sample concentration=100 nM
For one experiment, the target named is T1, PI3 Kinase (p120γ) (h) (Homo sapiens, UniProt P48736).
T1 construct: endogenous in cells; host or cells: RAW264.7
In words: Inhibition of phosphatidylinositol 3-kinase gamma (PI3K γ), pAkt Western blotting in C5a-stimulated RAW264.7 macrophages. Format: cell-based, mouse. Summed up:
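Enzyme: PI3Kγ activity measured at ATP=10 uM with compound at 100 nM. Cellular: RAW264.7 macrophages treated with compound 1.5 h, then stimulated with 10 ng/mL C5a for 5 min; lysates (10 μg protein) probed by Western blot for pAkt (Ser473 or Thr308), ECL detection.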
(In western blotting, separated proteins are transferred to a membrane and probed.)

In experiment [1] the target is T2, PI3 Kinase (p110β/p86α) (h) (Homo sapiens, UniProt P42338).
T2 construct: endogenous in cells; host or cells: PC3
In words: Inhibition of phosphatidylinositol 3-kinase beta (PI3K β), pAkt Western blotting in LPA-stimulated PC3 cells. The format is cell-based. On the procedure: (§1) The stimulated cells were transferred in a 1.5 mL tube, followed by centrifugation at 3000 rpm for 1 minute. 100 μL of RIPA buffer (radioimmunoprecipitation assay buffer, 50 mM Tris-HCl, 5 mM EDTA, 150 mM NaCl, 1% NP-40, 1 mM PMSF, pH 8.0; ELPIS, Korea) was added thereto, which was stored in a 4° C. refrigerator for 12 hours. Centrifugation was performed at 4° C. at 14,000 rpm for 20 minutes. The supernatant was transferred into a new 1.5 mL tube. Protein was quantified by BCA (bicinchoninic acid) method and samples were prepared. The composition of the sample was as follows: sample buffer (ELPIS, EBA-1052) 5×, protein 10 μg, and 1× sample buffer to make the total volume 20 μL. The sample was heated at 100° C. for 5 minutes. The evaporated water vapor was condensed in a refrigerator. The liquid stained on the wall was fallen down by centrifugation for a few seconds. The sample proceeded to 10% SDS (Sodium Dodecyl Sulfate) acrylamide gel for separation. The separated protein was transferred onto PVDF (poly-vinyl difluoride) membrane, followed by reaction with pAkt (phospho protein kinase B) antibody (Ser473 or Thr308; Cell signaling, 9271s or 13038s) for 12 hours at 4° C. The membrane was washed with TBST (Tris-Buffered Saline with Tween 20, 10 mM Tris-HCl, pH 7.5, 150 mM NaCl, 0.1% Tween-20) three times for 5 minutes each, to which the secondary antibody (rabbit antibody, Santacruz, sc-2004) was added, followed by reaction at room temperature for 2 hours. The membrane was washed with TBST three times for 10 minutes each, to which ECL (enhanced chemiluminescence, Thermo, NCI34095KR) was sprayed. Bands were investigated by using LAS-3000.
The inhibition of phosphatidylinositol 3 kinase beta (PI3K β) by those compounds prepared in Examples 1˜98 was investigated by the following experiment. The inhibition activity of each compound was measured in the following conditions: ATP=10 uM, and sample concentration=100 nM.
Human prostate cancer cells (PC3 cells) cultured in DMEM (Dulbecco's Modified Eagle Medium, Hyclon, SH30243.01) supplemented with 10% fetal bovine serum (Hyclon, USA) were distributed in a 12-well plate at the density of 1,000,000 cells/well. The cells were stabilized in a 37° C. CO2 for 24 hours and then treated with each compound for 1 and half hours. The cells were treated with 10 ng/mL of LPA (lysophosphatidic acid, 10 μg/mL; R&D, 2150-05) to increase the intracellular activity of PI3K beta. 5 minutes later, the medium was discarded and the cells were washed with cold PBS (phosphate buffered saline, Gibco, 14190-250). PBS was then eliminated completely by using a pipette. Western blotting was performed according to the same manner as described in step 2 of Experimental Example 1 to evaluate the intracellular PI3K beta activity.

Experiment [2] deals with T3, PI3 Kinase (p110δ/p85α) (h) (Homo sapiens, UniProt O00329).
T3 construct: endogenous in cells; host or cells: Raji
In words: Inhibition of phosphatidylinositol 3-kinase delta (PI3K δ), pAkt Western blotting in IgM-stimulated Raji cells. The format is cell-based. The gist of the method: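 Raji cells were treated with compound for 1.5 h, then stimulated with 0.25 μg/mL IgM for 30 min to activate PI3Kδ. Lysates were Western blotted for pAkt (Ser473 or Thr308) with ECL detection. Conditions stated: ATP=10 uM, sample concentration=100 nM.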

In experiment [3] the target is T4, PI3 Kinase (p110α/p85α) (h) (Homo sapiens, UniProt P42336).
T4 construct: endogenous in cells; host or cells: MDA-MB-453
In words: Inhibition of phosphatidylinositol 3-kinase alpha (PI3K α), pAkt Western blotting in EGF-stimulated MDA-MB-453 cells. The format is cell-based. On the procedure: The inhibition of phosphatidylinositol 3 kinase alpha (PI3K α) by those compounds prepared in Examples 1˜98 was investigated by the following experiment. The inhibition activity of each compound was measured in the following conditions: ATP=10 uM, and sample concentration=100 nM.
Human breast cancer cells (MDA-MB-453) cultured in DMEM (Dulbecco's Modified Eagle Medium, Hyclon, SH30243.01) supplemented with 10% fetal bovine serum (Hyclon, USA) were distributed in a 12-well plate at the density of 1,000,000 cells/well. The cells were stabilized in a 37° C. CO2 for 24 hours and then treated with each compound for 1 and half hours. The cells were treated with 10 ng/mL of EGF (Epidermal Growth Factor, 10 μg/mL; R&D, 2150-C5) to increase the intracellular activity of PI3K alpha. 5 minutes later, the medium was discarded and the cells were washed with cold PBS (phosphate buffered saline, Gibco, 14190-250). PBS was then eliminated completely by using a pipette. Western blotting was performed as described in step 2 to evaluate the intracellular PI3K alpha activity.
as §1

T3 sequence (O00329 whole entry): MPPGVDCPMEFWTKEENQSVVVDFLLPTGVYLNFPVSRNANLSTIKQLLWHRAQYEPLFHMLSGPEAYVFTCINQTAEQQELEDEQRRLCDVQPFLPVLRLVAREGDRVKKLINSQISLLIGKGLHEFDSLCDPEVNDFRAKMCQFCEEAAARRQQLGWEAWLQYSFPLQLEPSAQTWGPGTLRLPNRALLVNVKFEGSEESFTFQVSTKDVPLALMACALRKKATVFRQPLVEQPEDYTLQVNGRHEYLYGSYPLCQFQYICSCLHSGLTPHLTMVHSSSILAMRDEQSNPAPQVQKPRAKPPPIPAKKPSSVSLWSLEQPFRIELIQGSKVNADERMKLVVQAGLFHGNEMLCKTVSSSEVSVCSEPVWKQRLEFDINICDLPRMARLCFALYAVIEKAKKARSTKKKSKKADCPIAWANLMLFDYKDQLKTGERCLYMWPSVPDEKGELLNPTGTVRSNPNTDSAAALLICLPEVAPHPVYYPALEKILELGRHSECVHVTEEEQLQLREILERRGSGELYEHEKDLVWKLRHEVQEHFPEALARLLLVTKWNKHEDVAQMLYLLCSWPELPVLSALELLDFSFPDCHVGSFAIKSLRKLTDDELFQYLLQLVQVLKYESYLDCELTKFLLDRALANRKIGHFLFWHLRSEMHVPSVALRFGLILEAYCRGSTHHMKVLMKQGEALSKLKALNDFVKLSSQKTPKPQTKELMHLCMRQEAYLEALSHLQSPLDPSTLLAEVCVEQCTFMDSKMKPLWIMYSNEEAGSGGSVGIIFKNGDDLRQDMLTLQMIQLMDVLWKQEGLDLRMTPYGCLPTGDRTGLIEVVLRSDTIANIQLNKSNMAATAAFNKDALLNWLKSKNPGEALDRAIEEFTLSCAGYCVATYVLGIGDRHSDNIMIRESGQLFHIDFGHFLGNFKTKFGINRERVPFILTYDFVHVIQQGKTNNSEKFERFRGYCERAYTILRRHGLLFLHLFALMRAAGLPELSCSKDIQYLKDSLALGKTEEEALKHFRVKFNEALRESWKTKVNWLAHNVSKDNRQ
T3 sequence (P27986 whole entry partner): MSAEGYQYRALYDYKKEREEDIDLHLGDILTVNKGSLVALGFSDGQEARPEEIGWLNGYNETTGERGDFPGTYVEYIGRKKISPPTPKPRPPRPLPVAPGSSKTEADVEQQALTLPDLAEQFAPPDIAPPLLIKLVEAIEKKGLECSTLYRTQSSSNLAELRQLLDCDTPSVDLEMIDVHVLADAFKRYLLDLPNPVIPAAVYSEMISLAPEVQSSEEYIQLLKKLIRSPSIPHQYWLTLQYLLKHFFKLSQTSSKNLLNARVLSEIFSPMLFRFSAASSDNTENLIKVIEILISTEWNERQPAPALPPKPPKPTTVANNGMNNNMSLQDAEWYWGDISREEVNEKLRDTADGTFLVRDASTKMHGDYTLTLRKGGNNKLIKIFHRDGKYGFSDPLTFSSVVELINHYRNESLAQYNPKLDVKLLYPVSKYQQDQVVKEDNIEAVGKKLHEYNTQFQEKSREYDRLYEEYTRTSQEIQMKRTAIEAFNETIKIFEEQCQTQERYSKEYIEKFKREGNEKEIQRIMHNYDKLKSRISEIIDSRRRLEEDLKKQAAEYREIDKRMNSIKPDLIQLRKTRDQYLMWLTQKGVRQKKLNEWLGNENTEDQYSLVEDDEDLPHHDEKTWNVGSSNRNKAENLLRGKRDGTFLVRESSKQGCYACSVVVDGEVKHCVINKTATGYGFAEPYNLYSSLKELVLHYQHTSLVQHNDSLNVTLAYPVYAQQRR
T2 sequence (P42338 whole entry): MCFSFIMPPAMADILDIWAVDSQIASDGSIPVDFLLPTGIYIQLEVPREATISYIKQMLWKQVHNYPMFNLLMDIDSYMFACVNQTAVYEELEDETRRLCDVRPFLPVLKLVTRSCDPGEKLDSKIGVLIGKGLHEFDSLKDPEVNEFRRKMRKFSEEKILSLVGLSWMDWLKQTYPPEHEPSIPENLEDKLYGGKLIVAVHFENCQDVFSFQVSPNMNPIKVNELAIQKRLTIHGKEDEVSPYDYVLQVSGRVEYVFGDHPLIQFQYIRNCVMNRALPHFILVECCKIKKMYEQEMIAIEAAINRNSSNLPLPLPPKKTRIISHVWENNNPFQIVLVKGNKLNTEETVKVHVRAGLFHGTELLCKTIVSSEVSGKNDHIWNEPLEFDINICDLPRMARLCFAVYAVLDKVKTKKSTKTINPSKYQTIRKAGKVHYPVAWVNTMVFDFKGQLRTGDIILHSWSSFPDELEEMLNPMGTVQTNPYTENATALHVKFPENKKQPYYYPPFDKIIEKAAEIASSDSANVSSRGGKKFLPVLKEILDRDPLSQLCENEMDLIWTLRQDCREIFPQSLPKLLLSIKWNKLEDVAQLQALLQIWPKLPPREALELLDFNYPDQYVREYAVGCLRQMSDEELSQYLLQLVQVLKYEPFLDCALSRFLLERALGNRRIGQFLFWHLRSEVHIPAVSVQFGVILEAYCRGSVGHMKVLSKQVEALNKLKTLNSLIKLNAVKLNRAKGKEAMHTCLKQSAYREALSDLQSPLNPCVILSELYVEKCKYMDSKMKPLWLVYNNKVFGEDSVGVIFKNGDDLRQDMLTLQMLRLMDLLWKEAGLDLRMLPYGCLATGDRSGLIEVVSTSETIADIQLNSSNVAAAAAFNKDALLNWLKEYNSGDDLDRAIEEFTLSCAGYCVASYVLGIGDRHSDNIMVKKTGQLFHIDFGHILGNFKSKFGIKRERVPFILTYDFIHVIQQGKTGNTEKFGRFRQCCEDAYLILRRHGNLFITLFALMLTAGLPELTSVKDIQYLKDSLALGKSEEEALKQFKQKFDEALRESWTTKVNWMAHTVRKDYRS
T2 sequence (P27986 whole entry partner): as the sequence (P27986 whole entry partner) above
T1 sequence (P48736 whole entry): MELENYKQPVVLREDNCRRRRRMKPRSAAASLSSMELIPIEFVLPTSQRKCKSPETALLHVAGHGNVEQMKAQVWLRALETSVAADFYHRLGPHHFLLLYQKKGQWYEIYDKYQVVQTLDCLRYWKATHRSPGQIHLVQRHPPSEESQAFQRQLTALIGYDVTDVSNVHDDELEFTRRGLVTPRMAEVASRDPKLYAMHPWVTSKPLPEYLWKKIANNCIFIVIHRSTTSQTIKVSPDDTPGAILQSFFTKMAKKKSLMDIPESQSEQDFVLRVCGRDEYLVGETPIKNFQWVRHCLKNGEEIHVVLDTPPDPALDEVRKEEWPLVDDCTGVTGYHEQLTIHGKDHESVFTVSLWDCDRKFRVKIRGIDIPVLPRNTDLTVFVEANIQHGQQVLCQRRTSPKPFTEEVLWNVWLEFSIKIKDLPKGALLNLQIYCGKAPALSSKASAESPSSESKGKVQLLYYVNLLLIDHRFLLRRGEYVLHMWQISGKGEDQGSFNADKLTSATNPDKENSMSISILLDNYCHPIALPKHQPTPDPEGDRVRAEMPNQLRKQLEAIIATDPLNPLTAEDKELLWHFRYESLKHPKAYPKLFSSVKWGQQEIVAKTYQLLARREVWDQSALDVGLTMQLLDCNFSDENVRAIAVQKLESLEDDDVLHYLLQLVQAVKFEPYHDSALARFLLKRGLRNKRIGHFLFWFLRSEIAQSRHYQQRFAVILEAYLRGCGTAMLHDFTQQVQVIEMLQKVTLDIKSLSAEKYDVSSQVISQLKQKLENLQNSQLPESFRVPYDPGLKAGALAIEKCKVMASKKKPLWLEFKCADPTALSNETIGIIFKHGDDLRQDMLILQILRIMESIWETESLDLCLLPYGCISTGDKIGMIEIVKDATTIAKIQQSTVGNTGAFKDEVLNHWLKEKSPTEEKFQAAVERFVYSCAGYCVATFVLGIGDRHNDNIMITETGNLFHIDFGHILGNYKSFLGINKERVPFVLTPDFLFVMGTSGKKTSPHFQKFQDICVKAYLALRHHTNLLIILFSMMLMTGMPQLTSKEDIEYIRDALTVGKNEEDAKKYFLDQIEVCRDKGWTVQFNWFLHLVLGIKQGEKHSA

Usually pIC50 stands for −log10 of the IC50, conventionally taken in molar units. Low readings indicate a high IC50, high ones a low IC50. Turning to `C[C@H](Nc1ncnc2[nH]ccc(=O)c12)c1nc2cccc(Cl)c2c(=O)n1-c1ccccc1` [Example 1, (S)-4-((1-(5-chloro-4-oxo-3-phenyl-3,4-dihydroquinazoline-2-yl)ethyl)amino)pyrido[2,3-d]pyrimidine-5(8H)-one], the pIC50 was 6.30 to 8.00 against PI3 Kinase (p120γ) (h), 6.30 to 8.00 in experiment [1], above 8.00 in experiment [2] and below 6.30 in experiment [3].
Take `C[C@H](Nc1ncnc2[nH]ccc(=O)c12)c1nc2cccc(Cl)c2c(=O)n1-c1cccnc1` [Example 2, (S)-4-((1-(5-chloro-4-oxo-3-(pyridine-3-yl)-3,4-dihydroquinazoline-2-yl)ethyl)amino)pyrido[2,3-d]pyrimidine-5(8H)-one]: the negative-log IC50 (pIC50) against PI3 Kinase (p120γ) (h) is 6.30 to 8.00; in experiment [1] it was below 6.30; in experiment [2], above 8.00; in experiment [3], below 6.30.
Turning to `C[C@H](Nc1ncnc2[nH]ccc(=O)c12)c1nc2cccc(Cl)c2c(=O)n1-c1ccccn1` [Example 3, (S)-4-((1-(5-chloro-4-oxo-3-(pyridine-2-yl)-3,4-dihydroquinazoline-2-yl)ethyl)amino)pyrido[2,3-d]pyrimidine-5(8H)-one], the pIC50 at PI3 Kinase (p120γ) (h) was 6.30 to 8.00; in experiment [1], below 6.30; in experiment [2], above 8.00; in experiment [3], below 6.30.
In the case of `C[C@H](Nc1ncnc2[nH]ccc(=O)c12)c1nc2cccc(Cl)c2c(=O)n1-c1cc(F)cc(F)c1` [Example 4, (S)-4-((1-(5-chloro-3-(3,5-difluorophenyl)-4-oxo-3,4-dihydroquinazoline-2-yl)ethyl)amino)pyrido[2,3-d]pyrimidine-5(8H)-one], the pIC50 against PI3 Kinase (p120γ) (h) is 6.30 to 8.00; in experiment [1], below 6.30; in experiment [2] it was above 8.00; in experiment [3], below 6.30.
For the molecule `C[C@H](Nc1ncnc2[nH]ccc(=O)c12)c1cc2cccc(Cl)c2c(=O)n1-c1ccccc1` [Example 5, (S)-4-((1-(8-chloro-1-oxo-2-phenyl-1,2-dihydroisoquinoline-3-yl)ethyl)amino)pyrido[2,3-d]pyrimidine-5(8H)-one], the pIC50 at PI3 Kinase (p120γ) (h) was 6.30 to 8.00; in experiment [1] it was 6.30 to 8.00; in experiment [2], above 8.00; in experiment [3], below 6.30.
Consider `C[C@H](Nc1ncnc2[nH]ccc(=O)c12)c1cc2ccccc2nc1-c1ccccc1` [Example 6, (S)-4-((1-(2-phenylquinoline-3-yl)ethyl)amino)pyrido[2,3-d]pyrimidine-5(8H)-one], for which the pIC50 is 6.30 to 8.00 at PI3 Kinase (p120γ) (h), below 6.30 in experiment [1], above 8.00 in experiment [2] and below 6.30 in experiment [3].
Regarding `CC(Nc1ncnc2[nH]ccc(=O)c12)c1nc2ccc(F)cc2cc1-c1ccccn1` (stereo not drawn) [Example 7, 4-((1-(6-fluoro-3-(pyridine-2-yl)quinoline-2-yl)ethyl)amino)pyrido[2,3-d]pyrimidine-5(8H)-one], the negative-log IC50 (pIC50) against PI3 Kinase (p120γ) (h) was below 6.30; in experiment [1], below 6.30; in experiment [2], above 8.00; in experiment [3], below 6.30.
As for `C[C@H](Nc1ncnc2[nH]ccc(=O)c12)c1nc2ccc(F)cc2cc1-c1ccccn1` [Example 7-1, (S)-4-((1-(6-fluoro-3-(pyridine-2-yl)quinoline-2-yl)ethyl)amino)pyrido[2,3-d]pyrimidine-5(8H)-one], the pIC50 against PI3 Kinase (p120γ) (h) is below 6.30; in experiment [1], below 6.30; in experiment [2] it was 6.30 to 8.00; in experiment [3] it was below 6.30.
Consider `C[C@H](Nc1ncnc2[nH]ccc(=O)c12)c1cc2ccc(F)cc2nc1-c1cccc(F)c1` [Example 8, (S)-4-((1-(7-fluoro-2-(3-fluorophenyl)quinoline-3-yl)ethyl)amino)pyrido[2,3-d]pyrimidine-5(8H)-one], for which the pIC50 is 6.30 to 8.00 at PI3 Kinase (p120γ) (h), below 6.30 in experiment [1], above 8.00 in experiment [2] and below 6.30 in experiment [3].
In the case of `C[C@H](Nc1ncnc2[nH]ccc(=O)c12)c1cc2ccc(F)cc2nc1-c1ccccn1` [Example 9, (S)-4-(1-(7-fluoro-2-(pyridine-2-yl)quinoline-3-yl)ethylamino)pyrido[2,3-d]pyrimidine-5(8H)-one], the pIC50 at PI3 Kinase (p120γ) (h) is 6.30 to 8.00; in experiment [1], below 6.30; in experiment [2] it was above 8.00; in experiment [3], below 6.30.
`C[C@H](Nc1ncnc2[nH]ccc(=O)c12)c1c(Cl)c2cccc(Cl)c2c(=O)n1-c1ccccc1` [Example 10, (S)-4-((1-(4,8-dichloro-1-oxo-2-phenyl-1,2-dihydroisoquinoline-3-yl)ethyl)amino)pyrido[2,3-d]pyrimidine-5(8H)-one]: the pIC50 against PI3 Kinase (p120γ) (h) was 6.30 to 8.00; in experiment [1], below 6.30; in experiment [2], above 8.00; in experiment [3], below 6.30.
For `C[C@H](Nc1ncnc2[nH]ccc(=O)c12)c1c(F)c2cccc(Cl)c2c(=O)n1-c1ccccc1` [Example 11, (S)-4-((1-(8-chloro-4-fluoro-1-oxo-2-phenyl-1,2-dihydroisoquinoline-3-yl)ethyl)amino)pyrido[2,3-d]pyrimidine-5(8H)-one], the pIC50 on PI3 Kinase (p120γ) (h) is 6.30 to 8.00; in experiment [1], below 6.30; in experiment [2], above 8.00; in experiment [3], below 6.30.
As for `CC[C@H](Nc1ncnc2[nH]ccc(=O)c12)c1nc2cccc(F)c2c(=O)n1-c1ccccc1` [Example 12, (S)-4-((1-(5-fluoro-4-oxo-3-phenyl-3,4-dihydroquinazoline-2-yl)propyl)amino)pyrido[2,3-d]pyrimidine-5(8H)-one], the negative-log IC50 (pIC50) is 6.30 to 8.00 against PI3 Kinase (p120γ) (h), below 6.30 in experiment [1], above 8.00 in experiment [2] and below 6.30 in experiment [3].
In the case of `O=c1cc[nH]c2ncnc(N3CCC[C@H]3c3nc4cccc(Cl)c4c(=O)n3-c3ccccc3)c12` [Example 13, (S)-4-(2-(5-chloro-4-oxo-3-phenyl-3,4-dihydroquinazoline-2-yl)pyrrolidine-1-yl)pyrido[2,3-d]pyrimidine-5(8H)-one], the pIC50 against PI3 Kinase (p120γ) (h) was 6.30 to 8.00; in experiment [1], below 6.30; in experiment [2], above 8.00; in experiment [3] it was below 6.30.
Regarding `O=c1cc[nH]c2ncnc(N3CCC[C@H]3c3cc4cccc(Cl)c4c(=O)n3-c3ccccc3)c12` [Example 14, (S)-4-(2-(8-chloro-1-oxo-2-phenyl-1,2-dihydroisoquinoline-3-yl)pyrrolidine-1-yl)pyrido[2,3-d]pyrimidine-5(8H)-one], the pIC50 is 6.30 to 8.00 against PI3 Kinase (p120γ) (h), below 6.30 in experiment [1], 6.30 to 8.00 in experiment [2] and below 6.30 in experiment [3].
